Measurements: US20060172334A1, “Method for detecting adverse reaction susceptibility to an HMG CoA reductase inhibitor” (Marshfield Clinic, priority 2005, published 2006)
Read-outs that look alike come from different tables or passages of the source.

Settings: cases only
[1] = CYP3A4 heterozygous (CYP3A4*1A/*1B), less gemfibrozil
[2] = CYP3A4 heterozygous (CYP3A4*1A/*1B), less gemfibrozil AND less niacin
[3] = CYP3A4 heterozygous (CYP3A4*1A/*1B), no medications removed
[4] = CYP3A4 homozygous (CYP3A4*1A/*1A), less gemfibrozil
[5] = CYP3A4 homozygous (CYP3A4*1A/*1A), less gemfibrozil AND less niacin
[6] = CYP3A4 homozygous (CYP3A4*1A/*1A), no medications removed
[7] = CYP3A5 heterozygous (CYP3A5*1/*3), less gemfibrozil
[8] = CYP3A5 heterozygous (CYP3A5*1/*3), less gemfibrozil AND less niacin
[9] = CYP3A5 heterozygous (CYP3A5*1/*3), no medications removed
[10] = CYP3A5 homozygous (CYP3A5*3/*3), less gemfibrozil
[11] = CYP3A5 homozygous (CYP3A5*3/*3), less gemfibrozil AND less niacin
[12] = CYP3A5 homozygous (CYP3A5*3/*3), no medications removed

Protocol: Study subjects were enrolled at a large, horizontally-integrated, multispecialty group practice located in central Wisconsin. […] Case assignment (i.e., status as a case versus control) was determined by criteria outlined below.
One hundred thirty-seven adult subjects (68 cases and 69 controls) agreed to participate in this study. Due to potentially confounding pharmacokinetic interactions, patients were excluded from the study if they had previously been diagnosed with kidney disease or liver disease. Patients were also excluded if they had pre-existing muscle disease. Patients were not excluded if they were taking concomitant medications.
To determine whether CYP3A4*1B or CYP3A5*3 were associated with the severity of muscle damage, serum CK levels were ranked and compared between genotypes in the case cohort only.

Q: With `CC(C)c1c(C(=O)Nc2ccccc2)c(-c2ccccc2)c(-c2ccc(F)cc2)n1CC[C@@H](O)C[C@@H](O)CC(=O)O` [atorvastatin] as the molecule, how does the “serum CK level, Mean” value [1] read?
A: 268.8

Q: And the “serum CK level, Median” value [1]?
A: 246.0

Q: And the “serum CK level, Mean” value [2]?
A: 246.6

Q: What about the “serum CK level, Median” value [2] of the same molecule?
A: 239.0

Q: And the “serum CK level, Mean” value [3]?
A: 268.8

Q: And the “serum CK level, Median” value [3]?
A: 246.0

Q: And the “serum CK level, Mean” value [4]?
A: 434.6

Q: And the “serum CK level, Median” value [4]?
A: 316.5

Q: What about the “serum CK level, Mean” value [5] of the same molecule?
A: 420.4

Q: And the “serum CK level, Median” value [5]?
A: 316.5

Q: And the “serum CK level, Mean” value [6]?
A: 441.1

Q: And the “serum CK level, Median” value [6]?
A: 321.0

Q: And the “serum CK level, Mean” value [7]?
A: 261.7

Q: And the “serum CK level, Median” value [7]?
A: 239.0

Q: And the “serum CK level, Mean” value [8]?
A: 249.9

Q: What about the “serum CK level, Median” value [8] of the same molecule?
A: 237.5

Q: And the “serum CK level, Mean” value [9]?
A: 344.0

Q: What about the “serum CK level, Median” value [9] of the same molecule?
A: 246.0

Q: What about the “serum CK level, Mean” value [10] of the same molecule?
A: 441.9

Q: What about the “serum CK level, Median” value [10] of the same molecule?
A: 321.0

Q: And the “serum CK level, Mean” value [11]?
A: 428.0

Q: What about the “serum CK level, Median” value [11] of the same molecule?
A: 321.0

Q: And the “serum CK level, Mean” value [12]?
A: 429.2

Q: What about the “serum CK level, Median” value [12] of the same molecule?
A: 317.5
